From PubChem BioAssay AID1963974 (Molecular Pharmacology Branch, DTP, NCI, 2024)

Test system: 648629-189-R-J1-PDC spheroids with HUVEC/MSC, viability
Experiment: Anticancer human tumor 648629-189-R-J1-PDC patient-derived bladder carcinoma cell line growth inhibition [PI3K]
Conditions: for IC50: curve of first compound; for viability, T/C: stronger effect = lower value
Procedure, shortened: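 Spheroid viability read-out. Co-cultures contained the tumor line plus HUVEC and human MSCs. Each agent was paired with a PI3K inhibitor (inavolisib, alpelisib, duvelisib, copanlisib) across half-log dilutions starting at clinical Cmax, or at 10 microM when Cmax was unknown.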

[1] = second compound 0.00316 µM, first compound 0.0316 µM
[2] = second compound 0.00316 µM, first compound 0.1 µM
[3] = second compound 0.00316 µM, first compound 0.316 µM
[4] = second compound 0.00316 µM, first compound 1 µM
[5] = second compound 0.00316 µM, first compound 3.16 µM
[6] = second compound 0.00316 µM, first compound 10 µM
[7] = second compound 0.01 µM, first compound 0.0316 µM
[8] = second compound 0.01 µM, first compound 0.1 µM
[9] = second compound 0.01 µM, first compound 0.316 µM
[10] = second compound 0.01 µM, first compound 1 µM
[11] = second compound 0.01 µM, first compound 3.16 µM
[12] = second compound 0.01 µM, first compound 10 µM
[13] = second compound 0.0316 µM, first compound 0.0316 µM
[14] = second compound 0.0316 µM, first compound 0.1 µM
[15] = second compound 0.0316 µM, first compound 0.316 µM
[16] = second compound 0.0316 µM, first compound 1 µM
[17] = second compound 0.0316 µM, first compound 3.16 µM
[18] = second compound 0.0316 µM, first compound 10 µM
[19] = second compound 0.1 µM, first compound 0.0316 µM
[20] = second compound 0.1 µM, first compound 0.1 µM
[21] = second compound 0.1 µM, first compound 0.316 µM
[22] = second compound 0.1 µM, first compound 1 µM
[23] = second compound 0.1 µM, first compound 3.16 µM
[24] = second compound 0.1 µM, first compound 10 µM
[25] = second compound 0.316 µM, first compound 0.0316 µM
[26] = second compound 0.316 µM, first compound 0.1 µM
[27] = second compound 0.316 µM, first compound 0.316 µM
[28] = second compound 0.316 µM, first compound 1 µM
[29] = second compound 0.316 µM, first compound 3.16 µM
[30] = second compound 0.316 µM, first compound 10 µM
[31] = second compound 1 µM, first compound 0.0316 µM
[32] = second compound 1 µM, first compound 0.1 µM
[33] = second compound 1 µM, first compound 0.316 µM
[34] = second compound 1 µM, first compound 1 µM
[35] = second compound 1 µM, first compound 3.16 µM
[36] = second compound 1 µM, first compound 10 µM
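Also: spheroids exposed to agents for seven days before reading.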
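For viability, T/C in this document: percent of vehicle control luminescence where 100% = DMSO treated spheroids.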

Compound: CCCS(=O)(=O)Nc1ccc(F)c(C(=O)c2c[nH]c3ncc(-c4ccc(Cl)cc4)cc23)c1F + COc1c(OCCCN2CCOCC2)ccc2c3n(c(=NC(=O)c4cnc(N)nc4)nc12)CCN3
- IC50 (second compound 0.00316 µM): 5390 nM
- IC50 (second compound 0.01 µM): 4980 nM
- IC50 (second compound 0.0316 µM): 4210 nM
- IC50 (second compound 0.1 µM): 1760 nM
- IC50 (second compound 0.316 µM): < 31.6 nM
- IC50 (second compound 1 µM): < 31.6 nM
- viability, T/C [1]: 117%
- viability, T/C [2]: 96.9%
- viability, T/C [3]: 92.4%
- viability, T/C [4]: 100%
- viability, T/C [5]: 92.7%
- viability, T/C [6]: 0.51%
- viability, T/C [7]: 89.8%
- viability, T/C [8]: 87.2%
- viability, T/C [9]: 100%
- viability, T/C [10]: 96.4%
- viability, T/C [11]: 82.5%
- viability, T/C [12]: 0.3%
- viability, T/C [13]: 85.8%
- viability, T/C [14]: 85.3%
- viability, T/C [15]: 87.8%
- viability, T/C [16]: 82.5%
- viability, T/C [17]: 66.4%
- viability, T/C [18]: 0.81%
- viability, T/C [19]: 55.4%
- viability, T/C [20]: 62.3%
- viability, T/C [21]: 54%
- viability, T/C [22]: 60.4%
- viability, T/C [23]: 42.1%
- viability, T/C [24]: 1.55%
- viability, T/C [25]: 22.4%
- viability, T/C [26]: 19.5%
- viability, T/C [27]: 18.3%
- viability, T/C [28]: 21.9%
- viability, T/C [29]: 16%
- viability, T/C [30]: 2.22%
- viability, T/C [31]: 4.16%
- viability, T/C [32]: 3.42%
- viability, T/C [33]: 3.84%
- viability, T/C [34]: 3.92%
- viability, T/C [35]: 3.43%
- viability, T/C [36]: 0.43%

Compound: C[C@@H](NC(=O)c1ncnc(N)c1Cl)c1ncc(C(=O)Nc2cc(C(F)(F)F)c(Cl)cn2)s1 + COc1c(OCCCN2CCOCC2)ccc2c3n(c(=NC(=O)c4cnc(N)nc4)nc12)CCN3
- IC50 (second compound 0.00316 µM): > 10000 nM
- IC50 (second compound 0.01 µM): > 10000 nM
- IC50 (second compound 0.0316 µM): > 10000 nM
- IC50 (second compound 0.1 µM): > 10000 nM
- IC50 (second compound 0.316 µM): < 31.6 nM
- IC50 (second compound 1 µM): < 31.6 nM
- viability, T/C [1]: 105%
- viability, T/C [2]: 106%
- viability, T/C [3]: 103%
- viability, T/C [4]: 107%
- viability, T/C [5]: 112%
- viability, T/C [6]: 116%
- viability, T/C [7]: 99.9%
- viability, T/C [8]: 111%
- viability, T/C [9]: 90.4%
- viability, T/C [10]: 101%
- viability, T/C [11]: 128%
- viability, T/C [12]: 113%
- viability, T/C [13]: 95.8%
- viability, T/C [14]: 93.8%
- viability, T/C [15]: 109%
- viability, T/C [16]: 94.9%
- viability, T/C [17]: 104%
- viability, T/C [18]: 90%
- viability, T/C [19]: 66.6%
- viability, T/C [20]: 70.3%
- viability, T/C [21]: 60.8%
- viability, T/C [22]: 65.2%
- viability, T/C [23]: 67.3%
- viability, T/C [24]: 68.9%
- viability, T/C [25]: 23.6%
- viability, T/C [26]: 21.7%
- viability, T/C [27]: 19.4%
- viability, T/C [28]: 27.9%
- viability, T/C [29]: 26.4%
- viability, T/C [30]: 25.8%
- viability, T/C [31]: 4.31%
- viability, T/C [32]: 4.06%
- viability, T/C [33]: 3.53%
- viability, T/C [34]: 4.37%
- viability, T/C [35]: 4.83%
- viability, T/C [36]: 6.55%

Compound: Cn1ncnc1[C@H]1c2n[nH]c(=O)c3cc(F)cc(c23)N[C@@H]1c1ccc(F)cc1 + COc1c(OCCCN2CCOCC2)ccc2c3n(c(=NC(=O)c4cnc(N)nc4)nc12)CCN3
- IC50 (second compound 0.00316 µM): > 100 nM
- IC50 (second compound 0.01 µM): > 100 nM
- IC50 (second compound 0.0316 µM): > 100 nM
- IC50 (second compound 0.1 µM): 32.2 nM
- IC50 (second compound 0.316 µM): < 0.316 nM
- IC50 (second compound 1 µM): < 0.316 nM
- viability, T/C (second compound 0.00316 µM, first compound 0.000316 µM): 100%
- viability, T/C (second compound 0.00316 µM, first compound 0.001 µM): 92.2%
- viability, T/C (second compound 0.00316 µM, first compound 0.00316 µM): 106%
- viability, T/C (second compound 0.00316 µM, first compound 0.01 µM): 88.5%
- viability, T/C [1]: 83.4%
- viability, T/C [2]: 59.3%
- viability, T/C (second compound 0.01 µM, first compound 0.000316 µM): 92.3%
- viability, T/C (second compound 0.01 µM, first compound 0.001 µM): 92.1%
- viability, T/C (second compound 0.01 µM, first compound 0.00316 µM): 88.7%
- viability, T/C (second compound 0.01 µM, first compound 0.01 µM): 93.6%
- viability, T/C [7]: 86.5%
- viability, T/C [8]: 60.6%
- viability, T/C (second compound 0.0316 µM, first compound 0.000316 µM): 88.5%
- viability, T/C (second compound 0.0316 µM, first compound 0.001 µM): 93.3%
- viability, T/C (second compound 0.0316 µM, first compound 0.00316 µM): 85.4%
- viability, T/C (second compound 0.0316 µM, first compound 0.01 µM): 73.5%
- viability, T/C [13]: 65.6%
- viability, T/C [14]: 55.3%
- viability, T/C (second compound 0.1 µM, first compound 0.000316 µM): 66.7%
- viability, T/C (second compound 0.1 µM, first compound 0.001 µM): 60.7%
- viability, T/C (second compound 0.1 µM, first compound 0.00316 µM): 57.5%
- viability, T/C (second compound 0.1 µM, first compound 0.01 µM): 57.2%
- viability, T/C [19]: 51.8%
- viability, T/C [20]: 41%
- viability, T/C (second compound 0.316 µM, first compound 0.000316 µM): 20.3%
- viability, T/C (second compound 0.316 µM, first compound 0.001 µM): 19.2%
- viability, T/C (second compound 0.316 µM, first compound 0.00316 µM): 18.7%
- viability, T/C (second compound 0.316 µM, first compound 0.01 µM): 16.4%
- viability, T/C [25]: 20%
- viability, T/C [26]: 15.4%
- viability, T/C (second compound 1 µM, first compound 0.000316 µM): 4.4%
- viability, T/C (second compound 1 µM, first compound 0.001 µM): 3.64%
- viability, T/C (second compound 1 µM, first compound 0.00316 µM): 3.49%
- viability, T/C (second compound 1 µM, first compound 0.01 µM): 3.59%
- viability, T/C [31]: 3.84%
- viability, T/C [32]: 2.43%
